The source made the active and inactive calls.
Columns and labels:
[1] = HGIII-sPLA2 enzyme inhibition potency – biochemical, QFRET, IC50, dose response (AID 743457);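 further: green fluorescence rise as the enzyme cleaves BODIPY PC-A2 in liposomes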
[2] = HIV-1 AD8 envelope cell-cell fusion blockers – cherry-pick, dose response (AID 652062); assay type: functional, cell-based;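 further: luciferase signal from cell-cell fusion driven by HIV-1 clade B AD8 Env; potency is for inhibitors of fusion seen as a drop in luminescence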
[3] = viability loss in CEM21 cells – cell-based, CellTiter-Glo luminescence, cherry-picked, cytotoxicity control for viral fusion inhibitor project, dose response (AID 652042); assay type: functional;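 further: potency for signal decrease meaning cytotoxicity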
[4] = blockers of HIV-1 envelope-mediated cell-cell fusion – cherry-pick, dose response (AID 652057); assay type: functional, cell-based
[5] = blockers of HIV-1 ZM109 envelope-driven cell-cell fusion – HeLa effector, CEM target cells, luciferase, cherry-pick, dose response (AID 652058); assay type: functional, cell-based;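 further: luciferase signal from HIV-1 Env mediated cell-cell fusion of effector and target cells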
[6] = off-target signal loss in HeLa-CEM21 co-culture – HeLa F-luc CTL cells, cherry-picked, counter-screen for HIV-1 Env fusion inhibitor project, dose response (AID 652040); assay type: functional, cell-based;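 further: potency for signal decrease marking cytotoxic or nonspecific inhibition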
Insulin-degrading enzyme [7] = target: T1, Insulin-degrading enzyme (Homo sapiens, UniProt P14735); test: cellular IDE activation of Abeta substrate cleavage – fluorescence polarization, HEK cells, dose response (AID 588439); assay type: functional, cell-based
T1 sequence (P14735 whole entry): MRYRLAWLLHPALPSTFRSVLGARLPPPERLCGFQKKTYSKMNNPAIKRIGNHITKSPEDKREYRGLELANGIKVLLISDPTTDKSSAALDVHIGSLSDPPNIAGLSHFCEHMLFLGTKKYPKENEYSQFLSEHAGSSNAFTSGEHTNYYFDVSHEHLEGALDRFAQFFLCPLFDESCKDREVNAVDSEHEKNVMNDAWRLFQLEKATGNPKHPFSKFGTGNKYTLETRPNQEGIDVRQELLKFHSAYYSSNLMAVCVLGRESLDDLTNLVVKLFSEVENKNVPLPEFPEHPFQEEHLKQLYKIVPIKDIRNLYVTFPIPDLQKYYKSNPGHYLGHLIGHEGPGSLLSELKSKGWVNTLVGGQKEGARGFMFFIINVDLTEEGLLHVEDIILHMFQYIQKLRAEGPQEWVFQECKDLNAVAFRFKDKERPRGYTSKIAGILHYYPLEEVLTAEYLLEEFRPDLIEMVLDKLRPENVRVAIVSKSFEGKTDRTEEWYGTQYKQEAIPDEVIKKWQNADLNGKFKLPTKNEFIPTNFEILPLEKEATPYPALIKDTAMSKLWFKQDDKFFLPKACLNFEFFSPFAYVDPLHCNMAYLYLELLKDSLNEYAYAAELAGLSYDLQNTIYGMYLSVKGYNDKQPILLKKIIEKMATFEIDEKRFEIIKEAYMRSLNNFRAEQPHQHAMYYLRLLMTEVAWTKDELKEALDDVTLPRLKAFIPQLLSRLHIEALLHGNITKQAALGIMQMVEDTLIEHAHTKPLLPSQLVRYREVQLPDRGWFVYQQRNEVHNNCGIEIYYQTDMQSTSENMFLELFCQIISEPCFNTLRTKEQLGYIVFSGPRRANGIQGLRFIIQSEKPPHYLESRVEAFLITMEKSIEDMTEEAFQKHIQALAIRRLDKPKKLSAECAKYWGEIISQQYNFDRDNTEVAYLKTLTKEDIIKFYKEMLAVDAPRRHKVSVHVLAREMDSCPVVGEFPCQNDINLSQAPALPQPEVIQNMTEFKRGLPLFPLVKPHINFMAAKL

[8] = target: T2, Orexin/Hypocretin receptor type 1 (Homo sapiens, UniProt O43613); test: Homogeneous Time Resolved Fluorescence (HTRF)-based cell-based high throughput dose response assay for antagonists of the orexin 1 receptor (OX1R; HCRTR1). [Related pubchem assays (depositor defined):AID434989, AID435008, AID463079, AID485270, AID492963, AID492964, AID492965, AID493232, AID504717, AID504718]; assay type: functional
T2 sequence (O43613 whole entry): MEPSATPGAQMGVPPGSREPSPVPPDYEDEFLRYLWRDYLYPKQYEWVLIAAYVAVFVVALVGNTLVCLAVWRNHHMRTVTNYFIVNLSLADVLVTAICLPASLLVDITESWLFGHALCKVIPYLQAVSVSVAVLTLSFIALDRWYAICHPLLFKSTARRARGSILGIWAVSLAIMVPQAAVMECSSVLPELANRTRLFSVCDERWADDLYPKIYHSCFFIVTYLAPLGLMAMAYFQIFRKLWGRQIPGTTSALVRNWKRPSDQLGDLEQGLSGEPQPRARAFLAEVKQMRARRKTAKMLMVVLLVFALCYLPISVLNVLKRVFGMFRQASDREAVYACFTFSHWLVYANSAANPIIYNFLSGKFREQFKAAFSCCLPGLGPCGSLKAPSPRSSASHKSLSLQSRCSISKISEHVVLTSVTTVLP

X-box-binding protein 1 = target: T3, X-box-binding protein 1 (Homo sapiens, UniProt P17861); assay type: functional, Cricetulus griseus;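 further: confirmatory dose-response counter-screen serving a CHOP assay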
T3 sequence (P17861 whole entry): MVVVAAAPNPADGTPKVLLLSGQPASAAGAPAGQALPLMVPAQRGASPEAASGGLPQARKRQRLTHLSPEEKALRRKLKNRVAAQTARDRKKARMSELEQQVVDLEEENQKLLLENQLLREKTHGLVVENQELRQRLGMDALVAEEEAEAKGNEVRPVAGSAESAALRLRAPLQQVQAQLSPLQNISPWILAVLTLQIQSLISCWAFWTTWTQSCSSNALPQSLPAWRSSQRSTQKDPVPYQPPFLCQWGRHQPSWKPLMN

HEK293 [9] = test: optical interference in Abeta FP readout, dose response, artefact control for IDE activator project, biochemical, fluorescence polarization (AID 588442); assay type: functional, cell-based; settings: Homo sapiens
Orexin receptor type 2 [10] = target: T4, Orexin receptor type 2 (Homo sapiens, UniProt O43614); test: Counterscreen assay for antagonists of the orexin 1 receptor (OX1R; HCRTR1): Fluorescence-based cell-based dose response assay for antagonists of the orexin 2 receptor (OX2R; HCRTR2), run by assay provider.; assay type: functional
T4 sequence (O43614 whole entry): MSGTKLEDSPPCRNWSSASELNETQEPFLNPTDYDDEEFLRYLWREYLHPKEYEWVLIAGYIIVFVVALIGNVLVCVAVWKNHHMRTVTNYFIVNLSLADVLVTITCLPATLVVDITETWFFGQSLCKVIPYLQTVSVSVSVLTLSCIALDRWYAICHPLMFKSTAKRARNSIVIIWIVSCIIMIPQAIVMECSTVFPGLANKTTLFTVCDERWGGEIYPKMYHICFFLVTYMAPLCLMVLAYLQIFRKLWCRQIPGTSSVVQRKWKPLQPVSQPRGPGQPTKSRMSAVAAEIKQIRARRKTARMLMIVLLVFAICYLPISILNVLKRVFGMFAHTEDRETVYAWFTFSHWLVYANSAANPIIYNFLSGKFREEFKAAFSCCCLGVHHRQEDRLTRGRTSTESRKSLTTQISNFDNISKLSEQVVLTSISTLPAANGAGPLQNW

CHO-K1 = test: (§1) Counterscreen for antagonists of the orexin 1 receptor (OX1R; HCRTR1): Homogeneous time resolved fluorescence (HTRF)-based cell-based dose response assay to identify antagonists of the parental CHO-K1 cell line. [Related pubchem assays (depositor defined):AID434989, AID435008, AID463079, AID485270, AID492963, AID492964, AID492965, AID493232, AID504699, AID504701]; assay type: functional; settings: Cricetulus griseus
Insulin-degrading enzyme [11] = target: T1, Insulin-degrading enzyme; test: recombinant IDE activation, cell-free – biochemical, fluorescence polarization, counter-screen for IDE activator project, dose response (AID 588681)
INS1 = test: INS-1E survival protection against cytokine death – cell-based, luminescence, retest, dose response (AID 449756); assay type: functional; settings: Rattus norvegicus;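 further: cell death triggered by IL-1 beta plus TNF-alpha plus IFN-gamma mixture; protective hits raise ATP signal compared with cytokine alone wells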
[12] = target: T2, Orexin/Hypocretin receptor type 1; test: Fluorescence-based cell-based high throughput dose response assay for antagonists of the orexin 1 receptor (OX1R; HCRTR1). [Related pubchem assays (depositor defined):AID434989, AID435008, AID463079, AID485270, AID492963, AID492964, AID492965, AID493232, AID504717, AID504718]; assay type: functional
Orexin receptor type 2 [13] = target: T4, Orexin receptor type 2; test: Counterscreen assay for antagonists of the orexin 1 receptor (OX1R; HCRTR1): Homogeneous Time Resolved Fluorescence (HTRF)-based cell-based dose response assay for antagonists of the orexin 2 receptor (OX2R; HCRTR2), run by assay provider.; assay type: functional
[14] = as §1, with “Fluorescence-based” for “Homogeneous time resolved fluorescence (HTRF)-based”, “cell-based high throughput” for “cell-based”, “CHO” for “CHO-K1”; assay type: functional
HEK293 [15] = test: membrane integrity loss in HEK cells – cell-based, fluorescence, cytotoxicity control for IDE activator project, dose response (AID 588440); assay type: functional; settings: Homo sapiens;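 further: cytotoxicity by LDH release measuring loss of membrane integrity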

Row | SMILES | IC50 [1] | AC50 [2] | AC50 [3] | AC50 [4] | AC50 [5] | AC50 [6] | other results
1 | CCCCC(=O)Nc1ccc(C(=O)NNC(=S)NC(=O)c2cccs2)cc1 | 63.5 µM (inactive) | – | – | – | – | – | –
2 | Cn1c(NCc2c(O)ccc3ccccc23)nc2ccccc21 | – | 28.9 µM (active) | 58.1 µM (active) | 15.4 µM (active) | 22.1 µM (active) | 40.6 µM (active) | –
3 | CCN(CC)c1ccc(-c2nnc(S)n2-c2ccccc2)cc1 | > 122 µM (inactive) | – | – | – | – | – | –
4 | COc1ccc(OCc2n(CC(=O)OC3CC(C)CCC3C(C)C)c3ccccc3[n+]2C)cc1.[Cl-] (centres undefined) | – | 11 µM (active) | 9.49 µM (active) | 9.99 µM (active) | 16.4 µM (active) | 17.2 µM (active) | EC50 (Insulin-degrading enzyme [7]): 15.5 µM (inactive); IC50 [8]: 63.1 µM (inactive); Absolute IC50 (XBP1) (X-box-binding protein 1): 10 µM; EC50 (HEK293 [9]): > 54.7 µM (inactive); IC50 (Orexin receptor type 2 [10]): 8.9 µM (active); IC50 (CHO-K1): > 66.2 µM (inactive); EC50 (Insulin-degrading enzyme [11]): > 54.7 µM (inactive); AC50 (INS1): 3.9 µM (active); IC50 [12]: 8.69 µM (active); IC50 (Orexin receptor type 2 [13]): > 50 µM (inactive); IC50 [14]: 15.3 µM (inactive); IC50 (HEK293 [15]): 17 µM (inactive)

From ChEMBL document CHEMBL1201862, “PubChem BioAssay data set” (2004)
